Test: xn = mol fraction of the nth substance listed

## CCCC[N+]1(C)CCCCC1.F[P-](F)(F)(F)(F)F + CCCC[N+]1(C)CCCC1.F[P-](F)(F)(F)(F)F
353.15 K, 102 kPa, x1 = 0.3
  viscosity: 126 mPa·s
353.15 K, 102 kPa, x1 = 0.7
  viscosity: 194 mPa·s
363.15 K, 102 kPa, x1 = 0.3
  viscosity: 85 mPa·s
363.15 K, 102 kPa, x1 = 0.5
  viscosity: 101 mPa·s
363.15 K, 102 kPa, x1 = 0.7
  viscosity: 125 mPa·s
373.15 K, 102 kPa, x1 = 0.3
  viscosity: 58 mPa·s
373.15 K, 102 kPa, x1 = 0.5
  viscosity: 68 mPa·s
373.15 K, 102 kPa, x1 = 0.7
  viscosity: 84 mPa·s
383.15 K, 102 kPa, x1 = 0.5
  viscosity: 48 mPa·s
383.15 K, 102 kPa, x1 = 0.7
  viscosity: 59 mPa·s

## CCCC[N+]1(C)CCCC1.F[P-](F)(F)(F)(F)F + CCCC[n+]1cccc(C)c1.F[P-](F)(F)(F)(F)F
303.13 K, 101.3 kPa, x2 = 0.4
  viscosity: 746 mPa·s
308.15 K, 101.3 kPa, x2 = 0.5
  viscosity: 480 mPa·s
308.15 K, 101.3 kPa, x2 = 0.6
  viscosity: 427 mPa·s
313.15 K, 101.3 kPa, x2 = 0.3
  viscosity: 448 mPa·s
313.15 K, 101.3 kPa, x2 = 0.5
  viscosity: 352 mPa·s
313.15 K, 101.3 kPa, x2 = 0.6
  viscosity: 313 mPa·s
313.15 K, 101.3 kPa, x2 = 0.7
  viscosity: 277 mPa·s
318.15 K, 101.3 kPa, x2 = 0.3
  viscosity: 334 mPa·s
318.15 K, 101.3 kPa, x2 = 0.6
  viscosity: 234 mPa·s
318.15 K, 101.3 kPa, x2 = 0.7
  viscosity: 208 mPa·s
318.15 K, 101.3 kPa, x2 = 0.8
  viscosity: 190 mPa·s
323.15 K, 101.3 kPa, x2 = 0.3
  viscosity: 253 mPa·s
323.15 K, 101.3 kPa, x2 = 0.4
  viscosity: 220 mPa·s
323.15 K, 101.3 kPa, x2 = 0.5
  viscosity: 199 mPa·s
323.15 K, 101.3 kPa, x2 = 0.6
  viscosity: 178 mPa·s
323.15 K, 101.3 kPa, x2 = 0.7
  viscosity: 159 mPa·s
323.15 K, 101.3 kPa, x2 = 0.8
  viscosity: 146 mPa·s
323.15 K, 101.3 kPa, x2 = 0.9
  viscosity: 130 mPa·s
328.15 K, 101.3 kPa, x2 = 0.2
  viscosity: 221 mPa·s
328.15 K, 101.3 kPa, x2 = 0.3
  viscosity: 195 mPa·s
328.15 K, 101.3 kPa, x2 = 0.5
  viscosity: 153 mPa·s
328.15 K, 101.3 kPa, x2 = 0.6
  viscosity: 138 mPa·s
328.15 K, 101.3 kPa, x2 = 0.8
  viscosity: 113 mPa·s
333.15 K, 101.3 kPa, x2 = 0.2
  viscosity: 173 mPa·s
333.15 K, 101.3 kPa, x2 = 0.3
  viscosity: 153 mPa·s
333.15 K, 101.3 kPa, x2 = 0.4
  viscosity: 133 mPa·s
333.15 K, 101.3 kPa, x2 = 0.5
  viscosity: 121 mPa·s
333.15 K, 101.3 kPa, x2 = 0.7
  viscosity: 97 mPa·s
333.15 K, 101.3 kPa, x2 = 0.8
  viscosity: 89 mPa·s
333.15 K, 101.3 kPa, x2 = 0.9
  viscosity: 80 mPa·s
338.15 K, 101.3 kPa, x2 = 0.2
  viscosity: 138 mPa·s
338.15 K, 101.3 kPa, x2 = 0.3
  viscosity: 121 mPa·s
338.15 K, 101.3 kPa, x2 = 0.4
  viscosity: 106 mPa·s
338.15 K, 101.3 kPa, x2 = 0.6
  viscosity: 87 mPa·s
338.15 K, 101.3 kPa, x2 = 0.7
  viscosity: 78 mPa·s
338.15 K, 101.3 kPa, x2 = 0.8
  viscosity: 71 mPa·s
338.15 K, 101.3 kPa, x2 = 0.9
  viscosity: 65 mPa·s
343.15 K, 101.3 kPa, x2 = 0.3
  viscosity: 98 mPa·s
343.15 K, 101.3 kPa, x2 = 0.5
  viscosity: 78 mPa·s
343.15 K, 101.3 kPa, x2 = 0.7
  viscosity: 63 mPa·s
343.15 K, 101.3 kPa, x2 = 0.8
  viscosity: 58 mPa·s
343.15 K, 101.3 kPa, x2 = 0.9
  viscosity: 53 mPa·s
348.15 K, 101.3 kPa, x2 = 0.2
  viscosity: 90 mPa·s
348.15 K, 101.3 kPa, x2 = 0.3
  viscosity: 79 mPa·s
348.15 K, 101.3 kPa, x2 = 0.4
  viscosity: 70 mPa·s
348.15 K, 101.3 kPa, x2 = 0.5
  viscosity: 63 mPa·s
348.15 K, 101.3 kPa, x2 = 0.7
  viscosity: 52 mPa·s
348.15 K, 101.3 kPa, x2 = 0.8
  viscosity: 48 mPa·s
348.15 K, 101.3 kPa, x2 = 0.9
  viscosity: 43 mPa·s
353.15 K, 101.3 kPa, x2 = 0.2
  viscosity: 74 mPa·s
353.15 K, 101.3 kPa, x2 = 0.3
  viscosity: 65 mPa·s
353.15 K, 101.3 kPa, x2 = 0.5
  viscosity: 53 mPa·s
353.15 K, 101.3 kPa, x2 = 0.6
  viscosity: 48 mPa·s
353.15 K, 101.3 kPa, x2 = 0.7
  viscosity: 43 mPa·s
353.15 K, 101.3 kPa, x2 = 0.8
  viscosity: 40 mPa·s
353.15 K, 101.3 kPa, x2 = 0.9
  viscosity: 36 mPa·s
358.15 K, 101.3 kPa, x2 = 0.3
  viscosity: 55 mPa·s
358.15 K, 101.3 kPa, x2 = 0.5
  viscosity: 44 mPa·s
358.15 K, 101.3 kPa, x2 = 0.6
  viscosity: 40 mPa·s
358.15 K, 101.3 kPa, x2 = 0.7
  viscosity: 36 mPa·s
358.15 K, 101.3 kPa, x2 = 0.8
  viscosity: 33 mPa·s
358.15 K, 101.3 kPa, x2 = 0.9
  viscosity: 30 mPa·s
363.15 K, 101.3 kPa, x2 = 0.2
  viscosity: 51 mPa·s
363.15 K, 101.3 kPa, x2 = 0.3
  viscosity: 46 mPa·s
363.15 K, 101.3 kPa, x2 = 0.4
  viscosity: 41 mPa·s
363.15 K, 101.3 kPa, x2 = 0.7
  viscosity: 31 mPa·s
363.15 K, 101.3 kPa, x2 = 0.8
  viscosity: 28 mPa·s
363.15 K, 101.3 kPa, x2 = 0.9
  viscosity: 26 mPa·s
